Structures are written as SMILES.

The values that follow come from US4408054A, “Oximes of 4-benzoyl-piperidines” (Hoechst-Roussel Pharmaceuticals Inc., priority 1982, dated 1983).

One assay deals with mice. Description: phenyl-p-quinone writhing assay in mice (analgesia). Type of assay: in vivo. The note with it: Mus musculus, sc, read-out: ED50 (subcutaneous dose effecting an approximately 50% inhibition of writhing). From the text: The 3-(4-piperidyl)-1,2-benzisoxazoles of the present invention are useful as analgetics due to their ability to alleviate pain in mammals. […] Exptl. Biol Med., 95 729 (1957)]. Thus, for instance, the subcutaneous dose effecting an approximately 50% inhibition of writhing (ED50) in mice produced in this assay is as follows: […]
For orientation: In writhing tests, fewer writhes than in controls are read as antinociception.
As for `CN1CCC(c2noc3ccccc23)CC1.Cl` [3-(1-Methyl-4-piperidyl)-1,2-benzisoxazole hydrochloride], the ED50 was 0.415 mg/kg.

`Cc1ccc2onc(C3CCN(C)CC3)c2c1.O=C(O)/C=C/C(=O)O` [3-(1-Methyl-4-piperidyl)-5-methyl-1,2-benzisoxazole fumarate]: the ED50 turned out to be 0.566 mg/kg.

Turning to `Cl.c1ccc2c(C3CCNCC3)noc2c1` [3-(4-Piperidyl)-1,2-benzisoxazole hydrochloride], the ED50 came out at 0.517 mg/kg.

On to `Cl.Clc1ccc2c(C3CCNCC3)noc2c1` [3-(4-Piperidyl)-6-chloro-1,2-benzisoxazole hydrochloride], for which the ED50 was 5.6 mg/kg.

For `Cl.Fc1ccc2c(C3CCNCC3)noc2c1` [3-(4-Piperidyl)-6-fluoro-1,2-benzisoxazole hydrochloride], the ED50 stood at 1.79 mg/kg.

As to `CC(C)=CCN1CCC2(C)c3cc(O)ccc3CC1C2C` (centres unmarked) [pentazocine, reference compound], the ED50 turned out to be 1.3 mg/kg.

Turning to `CCC(=O)O[C@](Cc1ccccc1)(c1ccccc1)[C@H](C)CN(C)C` [propoxyphene, reference compound], the ED50 came to 3.9 mg/kg.

Staying with this assay, now noted: Mus musculus, sc; mice, subcutaneous, phenyl-p-quinone writhing; read-out: ED50 (subcutaneous dose effecting an approximately 50% inhibition of writhing).
For the compound `C=CCN1CCC(c2noc3ccccc23)CC1.Cl` [3-(1-Allyl-4-piperidyl)-1,2-benzisoxazole hydrochloride], the ED50 came to 1.06 mg/kg.

`C=CCN1CCC(c2noc3cc(F)ccc23)CC1.Cl` [3-(1-Allyl-4-piperidyl)-6-fluoro-1,2-benzisoxazole hydrochloride]: the ED50 came out at 0.455 mg/kg.

`CN(C)CCCN1CCC(c2noc3ccccc23)CC1.O=C(O)/C=C/C(=O)O.O=C(O)/C=C/C(=O)O` [3-[1-(3-Dimethylaminopropyl)-4-piperidyl]-1,2-benzisoxazole difumarate]: the ED50 amounted to 7.4 mg/kg.

`Cl.c1ccc(CCN2CCC(c3noc4ccccc34)CC2)cc1` [3-[1-(β-Phenylethyl)-4-piperidyl]-1,2-benzisoxazole hydrochloride]: the ED50 is 0.386 mg/kg.

By ED50 is commonly meant the midpoint of the dose-response relation.
